Test results taken from ChEMBL document CHEMBL1147899, “Raman, FT-IR, NMR spectroscopic data and antimicrobial activity of bis[micro2-(benzimidazol-2-yl)-2-ethanethiolato-N,S,S-chloro-palladium(II)] dimer, [(micro2-CH2CH2NHNCC6H4)PdCl]2.C2H5OH complex” (2007).

Legend:
Type in all cases: functional
Proteus vulgaris [1] = assay: Antibacterial activity against Proteus vulgaris ATCC 8427 at 10 ug after 24 hrs by disk diffusion method; details: ATCC 8427, 24 h, read-out: IZ
Staphylococcus aureus [2] = assay: Antibacterial activity against Staphylococcus aureus ATCC 6538 at 10 ug after 24 hrs by disk diffusion method; details: ATCC 6538, 24 h, read-out: IZ
Escherichia coli [3] = assay: Antibacterial activity against Escherichia coli ATCC 11230 at 10 ug after 24 hrs by disk diffusion method; details: ATCC 11230, 24 h, read-out: IZ
Klebsiella pneumoniae [4] = assay: Antibacterial activity against Klebsiella pneumoniae UC57 at 10 ug after 24 hrs by disk diffusion method; details: read-out: IZ
Listeria monocytogenes [5] = assay: Antibacterial activity against Listeria monocytogenes ATCC 15313 at 10 ug after 24 hrs by disk diffusion method; details: ATCC 15313, 24 h, read-out: IZ
Pseudomonas aeruginosa [6] = assay: Antibacterial activity against Pseudomonas aeruginosa ATCC 27853 at 10 ug after 24 hrs by disk diffusion method; details: ATCC 27853, 24 h, read-out: IZ
Bacillus cereus [7] = assay: Antibacterial activity against Bacillus cereus ATCC 7064 at 10 ug after 24 hrs by disk diffusion method; details: ATCC 7064, 24 h, read-out: IZ
Micrococcus luteus [8] = assay: Antibacterial activity against Micrococcus luteus La 2971 at 10 ug by disk diffusion method; details: read-out: IZ
[9] = test system: Mycolicibacterium smegmatis; assay: Antibacterial activity against Mycobacterium smegmatis CCM 2067 at 10 ug after 24 hrs by disk diffusion method; details: CCM 2067, 24 h, read-out: IZ
Staphylococcus aureus [10] = assay: Antibacterial activity against Staphylococcus aureus ATCC 6538 at 5 ug after 24 hrs by disk diffusion method; details: ATCC 6538, 24 h, read-out: IZ
Listeria monocytogenes [11] = assay: Antibacterial activity against Listeria monocytogenes ATCC 15313 at 5 ug after 24 hrs by disk diffusion method; details: ATCC 15313, 24 h, read-out: IZ
Proteus vulgaris [12] = assay: Antibacterial activity against Proteus vulgaris ATCC 8427 at 5 ug after 24 hrs by disk diffusion method; details: ATCC 8427, 24 h, read-out: IZ
Pseudomonas aeruginosa [13] = assay: Antibacterial activity against Pseudomonas aeruginosa ATCC 27853 at 5 ug after 24 hrs by disk diffusion method; details: ATCC 27853, 24 h, read-out: IZ
[14] = test system: Mycolicibacterium smegmatis; assay: Antibacterial activity against Mycobacterium smegmatis CCM 2067 at 5 ug after 24 hrs by disk diffusion method; details: CCM 2067, 24 h, read-out: IZ
Klebsiella pneumoniae [15] = assay: Antibacterial activity against Klebsiella pneumoniae UC57 at 5 ug after 24 hrs by disk diffusion method; details: read-out: IZ
Micrococcus luteus [16] = assay: Antibacterial activity against Micrococcus luteus La 2971 at 5 ug by disk diffusion method; details: read-out: IZ
Bacillus cereus [17] = assay: Antibacterial activity against Bacillus cereus ATCC 7064 at 5 ug after 24 hrs by disk diffusion method; details: ATCC 7064, 24 h, read-out: IZ
Escherichia coli [18] = assay: Antibacterial activity against Escherichia coli ATCC 11230 at 5 ug after 24 hrs by disk diffusion method; details: ATCC 11230, 24 h, read-out: IZ
Kluyveromyces marxianus = assay: Antifungal activity against Kluyveromyces fragilis NRRL 2415 at 20 ug after 72 hrs by disk diffusion method; details: NRRL 2415, 72 h, read-out: IZ
Candida albicans = assay: Antifungal activity against Candida albicans ATCC 10231 at 20 ug after 72 hrs by disk diffusion method; details: ATCC 10231, 72 h, read-out: IZ
Debaryomyces hansenii = assay: Antifungal activity against Debaryomyces hansenii DSM 70238 at 20 ug after 72 hrs by disk diffusion method; details: DSM 70238, 72 h, read-out: IZ
[19] = test system: Hanseniaspora guilliermondii; assay: Antifungal activity against Hanseniaspora guilliermondii DSM 3432 at 20 ug after 72 hrs by disk diffusion method; details: DSM 3432, 72 h, read-out: IZ
Rhodotorula mucilaginosa = assay: Antifungal activity against Rhodotorula rubra DSM 70403 at 20 ug after 72 hrs by disk diffusion method; details: DSM 70403, 72 h, read-out: IZ
Staphylococcus aureus [20] = assay: Antibacterial activity against Staphylococcus aureus ATCC 6538 at 30 ug after 24 hrs by disk diffusion method; details: ATCC 6538, 24 h, read-out: IZ
Escherichia coli [21] = assay: Antibacterial activity against Escherichia coli ATCC 11230 at 30 ug after 24 hrs by disk diffusion method; details: ATCC 11230, 24 h, read-out: IZ
[22] = test system: Mycolicibacterium smegmatis; assay: Antibacterial activity against Mycobacterium smegmatis CCM 2067 at 30 ug after 24 hrs by disk diffusion method; details: CCM 2067, 24 h, read-out: IZ
Pseudomonas aeruginosa [23] = assay: Antibacterial activity against Pseudomonas aeruginosa ATCC 27853 at 30 ug after 24 hrs by disk diffusion method; details: ATCC 27853, 24 h, read-out: IZ
Listeria monocytogenes [24] = assay: Antibacterial activity against Listeria monocytogenes ATCC 15313 at 30 ug after 24 hrs by disk diffusion method; details: ATCC 15313, 24 h, read-out: IZ
Micrococcus luteus [25] = assay: Antibacterial activity against Micrococcus luteus La 2971 at 30 ug by disk diffusion method; details: read-out: IZ
Proteus vulgaris [26] = assay: Antibacterial activity against Proteus vulgaris ATCC 8427 at 30 ug after 24 hrs by disk diffusion method; details: ATCC 8427, 24 h, read-out: IZ
Klebsiella pneumoniae [27] = assay: Antibacterial activity against Klebsiella pneumoniae UC57 at 30 ug after 24 hrs by disk diffusion method; details: read-out: IZ
Bacillus cereus [28] = assay: Antibacterial activity against Bacillus cereus ATCC 7064 at 30 ug after 24 hrs by disk diffusion method; details: ATCC 7064, 24 h, read-out: IZ

**Q.** `CC1(C)S[C@@H]2[C@H](NC(=O)Cc3ccccc3)C(=O)N2[C@H]1C(=O)O` [PENICILLIN G] was tested. Which zone of inhibition at 10 µg/disc (Proteus vulgaris [1]) did it give?
**A.** 10 mm

**Q.** What about the zone of inhibition at 10 µg/disc (Staphylococcus aureus [2]) of the same molecule?
**A.** 13 mm

**Q.** And the zone of inhibition at 10 µg/disc (Escherichia coli [3])?
**A.** 18 mm

**Q.** What about the zone of inhibition at 10 µg/disc (Klebsiella pneumoniae [4]) of the same molecule?
**A.** 18 mm

**Q.** And the zone of inhibition at 10 µg/disc (Listeria monocytogenes [5])?
**A.** 10 mm

**Q.** And the zone of inhibition at 10 µg/disc (Pseudomonas aeruginosa [6])?
**A.** 8 mm

**Q.** And the zone of inhibition at 10 µg/disc (Bacillus cereus [7])?
**A.** 14 mm

**Q.** And the zone of inhibition at 10 µg/disc (Micrococcus luteus [8])?
**A.** 36 mm

**Q.** What about the zone of inhibition at 10 µg/disc [9] of the same molecule?
**A.** 15 mm

**Q.** How did the zone of inhibition at 5 µg/disc (Staphylococcus aureus [10]) turn out when `CC1COc2c(N3CCN(C)CC3)c(F)cc3c(=O)c(C(=O)O)cn1c23` (stereo unspecified) [OFLOXACIN] was run?
**A.** 24 mm

**Q.** What about the zone of inhibition at 5 µg/disc (Listeria monocytogenes [11]) of the same molecule?
**A.** 30 mm

**Q.** What about the zone of inhibition at 5 µg/disc (Proteus vulgaris [12]) of the same molecule?
**A.** 28 mm

**Q.** What about the zone of inhibition at 5 µg/disc (Pseudomonas aeruginosa [13]) of the same molecule?
**A.** 44 mm

**Q.** And the zone of inhibition at 5 µg/disc [14]?
**A.** 32 mm

**Q.** And the zone of inhibition at 5 µg/disc (Klebsiella pneumoniae [15])?
**A.** 28 mm

**Q.** What about the zone of inhibition at 5 µg/disc (Micrococcus luteus [16]) of the same molecule?
**A.** 28 mm

**Q.** What about the zone of inhibition at 5 µg/disc (Bacillus cereus [17]) of the same molecule?
**A.** 30 mm

**Q.** And the zone of inhibition at 5 µg/disc (Escherichia coli [18])?
**A.** 30 mm

**Q.** `CC(=O)N1CCN(c2ccc(OCC3COC(Cn4ccnc4)(c4ccc(Cl)cc4Cl)O3)cc2)CC1` (stereo unspecified) [KETOCONAZOLE] was tested. Which zone of inhibition at 20 µg/disc (Kluyveromyces marxianus) did it give?
**A.** 16 mm

**Q.** What about the zone of inhibition at 20 µg/disc (Candida albicans) of the same molecule?
**A.** 21 mm

**Q.** What about the zone of inhibition at 20 µg/disc (Debaryomyces hansenii) of the same molecule?
**A.** 14 mm

**Q.** And the zone of inhibition at 20 µg/disc [19]?
**A.** 24 mm

**Q.** And the zone of inhibition at 20 µg/disc (Rhodotorula mucilaginosa)?
**A.** 22 mm

**Q.** `CC1(C)S[C@@H]2[C@H](NC(=O)[C@H](N)c3ccccc3)C(=O)N2[C@H]1C(=O)O` [AMPICILLIN] was tested. Which zone of inhibition at 10 µg/disc (Proteus vulgaris [1]) did it give?
**A.** 16 mm

**Q.** And the zone of inhibition at 10 µg/disc (Staphylococcus aureus [2])?
**A.** 16 mm

**Q.** And the zone of inhibition at 10 µg/disc (Escherichia coli [3])?
**A.** 12 mm

**Q.** And the zone of inhibition at 10 µg/disc (Klebsiella pneumoniae [4])?
**A.** 14 mm

**Q.** What about the zone of inhibition at 10 µg/disc (Listeria monocytogenes [5]) of the same molecule?
**A.** 12 mm

**Q.** What about the zone of inhibition at 10 µg/disc (Pseudomonas aeruginosa [6]) of the same molecule?
**A.** 10 mm

**Q.** What about the zone of inhibition at 10 µg/disc (Bacillus cereus [7]) of the same molecule?
**A.** 12 mm

**Q.** What about the zone of inhibition at 10 µg/disc (Micrococcus luteus [8]) of the same molecule?
**A.** 32 mm

**Q.** What about the zone of inhibition at 10 µg/disc [9] of the same molecule?
**A.** 21 mm

**Q.** What does the source list for `CN[C@H](CC(C)C)C(=O)N[C@H]1C(=O)N[C@@H](CC(N)=O)C(=O)N[C@H]2C(=O)N[C@H]3C(=O)N[C@H](C(=O)N[C@H](C(=O)O)c4cc(O)cc(O)c4-c4cc3ccc4O)[C@H](O)c3ccc(c(Cl)c3)Oc3cc2cc(c3O[C@@H]2O[C@H](CO)[C@@H](O)[C@H](O)[C@H]2O[C@H]2C[C@](C)(N)[C@H](O)[C@H](C)O2)Oc2ccc(cc2Cl)[C@H]1O` [VANCOMYCIN]?
**A.** zone of inhibition at 30 µg/disc (Staphylococcus aureus [20]): 13 mm; zone of inhibition at 30 µg/disc (Escherichia coli [21]): 22 mm; zone of inhibition at 30 µg/disc [22]: 20 mm; zone of inhibition at 30 µg/disc (Pseudomonas aeruginosa [23]): 10 mm; zone of inhibition at 30 µg/disc (Listeria monocytogenes [24]): 26 mm; zone of inhibition at 30 µg/disc (Micrococcus luteus [25]): 34 mm; zone of inhibition at 30 µg/disc (Proteus vulgaris [26]): 20 mm; zone of inhibition at 30 µg/disc (Klebsiella pneumoniae [27]): 22 mm; zone of inhibition at 30 µg/disc (Bacillus cereus [28]): 18 mm
